Laboratory results taken from ChEMBL document CHEMBL1136327, “Synthesis of a highly active new anti-HIV agent 2',3'-didehydro-3'-deoxy-4'-ethynylthymidine” (Bioorg Med Chem Lett, 2003).

How the values were obtained:
[1] = test system: Human immunodeficiency virus 1; test: Inhibitory activity against HIV-1 IIIB to achieve 50% protection of MT-2 cells; format: functional, organism-based; conditions: Human immunodeficiency virus 1, MT2
MT2 = test: Cytotoxic concentration required to reduce the viability of mock-infected MT-2 cells by 50%; format: functional; conditions: Homo sapiens

IC50 [1]	Structure (SMILES)	CC50 (MT2)
> 100 µM	C=C[C@@]1(CO)C=C[C@H](n2cc(C)c(=O)[nH]c2=O)O1	> 100 µM
> 100 µM	Cc1cn([C@H]2C=C[C@@](C)(CO)O2)c(=O)[nH]c1=O	> 100 µM
0.2 µM	C#C[C@@]1(CO)C=C[C@H](n2cc(C)c(=O)[nH]c2=O)O1 [CENSAVUDINE]	> 100 µM
2.8 µM	Cc1cn([C@H]2C=C[C@@H](CO)O2)c(=O)[nH]c1=O [STAVUDINE]	100 µM
